In patent US8846933B2, “N-link hydroxamic acid derivatives useful as antibacterial agents” (Pfizer Inc., priority 2009, dated 2014):

Key:
Type in all cases: cell-based
[1] = test system: Escherichia coli EC-1: VOGEL, mouse virulent; experiment: MIC determination (CLSI), strain EC-1; settings: Escherichia coli EC-1, VOGEL, mouse virulent; unit assumed
How it was run: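 The mouse-virulent VOGEL isolate of E. coli, EC-1, served as test organism. Minimum inhibitory concentration was measured by CLSI dilution methodology (M7-A7; M100-S18 standards).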

[2] = test system: Acinetobacter baumanii/haemolyticus: Multidrug-resistant clinical isolate (AB-3167); experiment: MIC determination (CLSI), strain AB-3167; settings: unit assumed
How it was run: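 Using the multidrug-resistant Acinetobacter baumanii/haemolyticus clinical isolate AB-3167, minimum inhibitory concentrations were determined following CLSI dilution susceptibility standards.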

[3] = test system: Pseudomonas aeruginosa UI-18: Wild-type (PA-7); experiment: MIC determination (CLSI), strain PA-7; settings: Pseudomonas aeruginosa UI-18, wild-type; unit assumed
How it was run: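 Strain tested was P. aeruginosa UI-18, a wild-type isolate labelled PA-7. Minimum inhibitory concentrations followed CLSI dilution methodology for aerobically growing bacteria (M7-A7, M100-S18).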

| SMILES | EC-1 (MIC) [1] | AB-3167 (MIC) [2] | PA-7 (MIC) [3] |
| --- | --- | --- | --- |
| C[C@@](CCn1ccc(-c2cccc(Cl)c2F)cc1=O)(C(=O)NO)S(C)(=O)=O [Example 45, (2R)-4-[4-(3-chloro-2-fluorophenyl)-2-oxopyridin-1(2H)-yl]-N-hydroxy-2-methyl-2-(methylsulfonyl)butanamide] | 0.25 µg/mL | > 64 µg/mL | 0.5 µg/mL |
| C[C@@](CCn1ccc(-c2cccc(Cl)c2Cl)cc1=O)(C(=O)NO)S(C)(=O)=O [Example 46, (2R)-4-[4-(2,3-dichlorophenyl)-2-oxopyridin-1(2H)-yl]-N-hydroxy-2-methyl-2-(methylsulfonyl)butanamide] | 0.25 µg/mL | > 64 µg/mL | 0.5 µg/mL |
| C[C@@](CCn1ccc(-c2ccc(C3CCOCC3)cc2)cc1=O)(C(=O)NO)S(C)(=O)=O [Example 47, (2R)-N-hydroxy-2-methyl-2-(methylsulfonyl)-4-{2-oxo-4-[4-(tetrahydro-2H-pyran-4-yl)phenyl]pyridin-1(2H)-yl}butanamide] | 0.5 µg/mL | > 64 µg/mL | 2 µg/mL |
| COCCSc1ccc(-c2ccn(CC[C@](C)(C(=O)NO)S(C)(=O)=O)c(=O)c2)cc1 [Example 48, (2R)-N-hydroxy-4-[4-{4-[(2-methoxyethyl)thio]phenyl}-2-oxopyridin-1(2H)-yl]-2-methyl-2-(methylsulfonyl)butanamide] | 0.25 µg/mL | > 64 µg/mL | 1 µg/mL |
| C[C@@](CCn1ccc(-c2ccc(Cl)c(F)c2F)cc1=O)(C(=O)NO)S(C)(=O)=O [Example 49, (2R)-4-[4-(4-chloro-2,3-difluorophenyl)-2-oxopyridin-1(2H)-yl]-N-hydroxy-2-methyl-2-(methylsulfonyl)butanamide] | 0.125 µg/mL | > 64 µg/mL | 0.25 µg/mL |
| C[C@@](CCn1ccc(-c2ccc(F)c(F)c2F)cc1=O)(C(=O)NO)S(C)(=O)=O [Example 50, (2R)-N-hydroxy-2-methyl-2-(methylsulfonyl)-4-[2-oxo-4-(2,3,4-trifluorophenyl)pyridin-1(2H)-yl]butanamide] | 0.5 µg/mL | 64 µg/mL | 0.5 µg/mL |
| CC(CCn1ccc(OCc2ccccc2)cc1=O)(C(=O)NO)S(C)(=O)=O (stereo not drawn) [Example 51, 4-[4-(Benzyloxy)-2-oxopyridin-1(2H)-yl]-N-hydroxy-2-methyl-2-(methylsulfonyl)butanamide] | 16 µg/mL | > 64 µg/mL | 16 µg/mL |
| Cc1c(-c2ccccc2)ccn(CCC(C)(C(=O)NO)S(C)(=O)=O)c1=O (stereo not drawn) [Example 52, N-Hydroxy-2-methyl-4-(3-methyl-2-oxo-4-phenylpyridin-1(2H)-yl)-2-(methylsulfonyl)butanamide] | 2 µg/mL | > 64 µg/mL | 4 µg/mL |
| CC(CCn1ccc(C2CCCCC2)cc1=O)(C(=O)NO)S(C)(=O)=O (stereo not drawn) [Example 53, 4-(4-Cyclohexyl-2-oxopyridin-1(2H)-yl)-N-hydroxy-2-methyl-2-(methylsulfonyl)butanamide] | 16 µg/mL | > 64 µg/mL | 8 µg/mL |
| CCC(CCn1ccc(-c2ccccc2)cc1=O)(C(=O)NO)S(C)(=O)=O (stereo not drawn) [Example 54, 2-Ethyl-N-hydroxy-2-(methylsulfonyl)-4-(2-oxo-4-phenylpyridin-1(2H)-yl)butanamide] | 16 µg/mL | 64 µg/mL | 16 µg/mL |
| C[C@@](CCn1ccc(-c2ccccc2)c(F)c1=O)(C(=O)NO)S(C)(=O)=O [Example 55, (2R)-4-(3-fluoro-2-oxo-4-phenylpyridin-1(2H)-yl)-N-hydroxy-2-methyl-2-(methylsulfonyl)butanamide] | 8 µg/mL | > 64 µg/mL | 1 µg/mL |
| C[C@@](CCn1cc(F)c(-c2ccccc2)cc1=O)(C(=O)NO)S(C)(=O)=O [Example 56, (2R)-4-(5-fluoro-2-oxo-4-phenylpyridin-1(2H)-yl)-N-hydroxy-2-methyl-2-(methylsulfonyl)butanamide] | 4 µg/mL | > 64 µg/mL | 1 µg/mL |
| CCS(=O)(=O)C(C)(CCn1ccc(-c2ccccc2)cc1=O)C(=O)NO (stereo not drawn) [Example 57, 2-(ethylsulfonyl)-N-hydroxy-2-methyl-4-(2-oxo-4-phenylpyridin-1(2H)-yl)butanamide] | 8 µg/mL | 16 µg/mL | 64 µg/mL |
| COc1cnn(-c2ccc(-c3ccn(CC[C@](C)(C(=O)NO)S(C)(=O)=O)c(=O)c3)cc2)n1 [Example 58, (2R)-N-hydroxy-4-{4-[4-(4-methoxy-2H-1,2,3-triazol-2-yl)phenyl]-2-oxopyridin-1(2H)-yl}-2-methyl-2-(methylsulfonyl)butanamide] | 0.03 µg/mL | > 64 µg/mL | 0.5 µg/mL |
| COc1ccc(COc2ccc(-c3ccn(CC[C@](C)(C(=O)NO)S(C)(=O)=O)c(=O)c3)cc2)cn1 [Example 59, (2R)-N-hydroxy-4-[4-{4-[(6-methoxypyridin-3-yl)methoxy]phenyl}-2-oxopyridin-1(2H)-yl]-2-methyl-2-(methylsulfonyl)butanamide] | 0.25 µg/mL | > 64 µg/mL | 1 µg/mL |
| C[C@@](CCn1ccc(-c2ccc(OC(F)(F)[C@H]3CC[C@H](O)CC3)cc2)cc1=O)(C(=O)NO)S(C)(=O)=O [Example 60, (2R)-4-[4-{4-[difluoro(trans-4-hydroxycyclohexyl)methoxy]phenyl}-2-oxopyridin-1(2H)-yl]-N-hydroxy-2-methyl-2-(methylsulfonyl)butanamide] | 0.125 µg/mL | 32 µg/mL | 1 µg/mL |
| C[C@@](CCn1ccc(-c2ccc(N3CCC(CO)CC3)cc2)cc1=O)(C(=O)NO)S(C)(=O)=O [Example 61, (2R)-N-hydroxy-4-[4-{4-[4-(hydroxymethyl)piperidin-1-yl]phenyl}-2-oxopyridin-1(2H)-yl]-2-methyl-2-(methylsulfonyl)butanamide] | 64 µg/mL | > 64 µg/mL | 2 µg/mL |
| CO/N=C(\C)c1ccc(-c2ccn(CCC(C)(C(=O)NO)S(C)(=O)=O)c(=O)c2)cc1 (stereo not drawn) [Example 62, N-Hydroxy-4-[4-{4-[(1E)-N-methoxyethanimidoyl]phenyl}-2-oxopyridin-1(2H)-yl]-2-methyl-2-(methylsulfonyl)butanamide] | 0.5 µg/mL | > 64 µg/mL | 4 µg/mL |
| Cc1cc(-c2ccn(CC[C@](C)(C(=O)NO)S(C)(=O)=O)c(=O)c2)ccc1-c1cc(CO)no1 [Example 63, N-Hydroxy-4-[4-{4-[3-(hydroxymethyl)isoxazol-5-yl]-3-methylphenyl}-2-oxopyridin-1(2H)-yl]-2-methyl-2-(methylsulfonyl)butanamide] | 2 µg/mL | > 64 µg/mL | 4 µg/mL |
| C[C@@](CCn1ccc(N2CC(c3ccccc3)C2)cc1=O)(C(=O)NO)S(C)(=O)=O [Example 64, (2R)-N-Hydroxy-2-methyl-2-(methylsulfonyl)-4-[2-oxo-4-(3-phenylazetidin-1-yl)pyridin-1(2H)-yl]butanamide] | 8 µg/mL | > 64 µg/mL | 8 µg/mL |
| C[C@@](CCn1ccc(C#Cc2ccccc2)cc1=O)(C(=O)NO)S(C)(=O)=O [Example 65, (2R)-N-Hydroxy-2-methyl-2-(methylsulfonyl)-4-[2-oxo-4-(phenylethynyl)pyridin-1(2H)-yl]butanamide] | 0.125 µg/mL | 64 µg/mL | 0.5 µg/mL |
| CC(CCn1ccc(OCCCC2CCCCC2)cc1=O)(C(=O)NO)S(C)(=O)=O (stereo not drawn) [Example 66, 4-[4-(3-Cyclohexylpropoxy)-2-oxopyridin-1(2H)-yl]-N-hydroxy-2-methyl-2-(methylsulfonyl)butanamide] | 1 µg/mL | 2 µg/mL | 8 µg/mL |
| C[C@@](CCn1ccc(C2=CCN(c3ncccn3)CC2)cc1=O)(C(=O)NO)S(C)(=O)=O [Example 67, (2R)-N-Hydroxy-2-methyl-2-(methylsulfonyl)-4-(2-oxo-1′-pyrimidin-2-yl-1′,2′,3′,6′-tetrahydro-4,4′-bipyridin-1(2H)-yl)butanamide] | 8 µg/mL | > 64 µg/mL | 8 µg/mL |
| C[C@@](CCn1ccc(-c2ccc3ccccc3c2)cc1=O)(C(=O)NO)S(C)(=O)=O [Example 68-A, (2R)-N-hydroxy-2-methyl-2-(methylsulfonyl)-4-[4-(2-naphthyl)-2-oxopyridin-1(2H)-yl]butanamide] | 0.06 µg/mL | > 64 µg/mL | 0.5 µg/mL |
| C[C@@](CCn1ccc(-c2ccc(Cl)c(F)c2)cc1=O)(C(=O)NO)S(C)(=O)=O [Example 68-B, (2R)-4-[4-(4-chloro-3-fluorophenyl)-2-oxopyridin-1(2H)-yl]-N-hydroxy-2-methyl-2-(methylsulfonyl)butanamide] | 0.5 µg/mL | > 64 µg/mL | 0.5 µg/mL |
| C[C@@](CCn1ccc(-c2ccc(Cl)c(Cl)c2)cc1=O)(C(=O)NO)S(C)(=O)=O [Example 68-C, (2R)-4-[4-(3,4-dichlorophenyl)-2-oxopyridin-1(2H)-yl]-N-hydroxy-2-methyl-2-(methylsulfonyl)butanamide] | 0.125 µg/mL | > 64 µg/mL | 0.5 µg/mL |
| C[C@@](CCn1ccc(-c2ccc(-c3nccs3)cc2)cc1=O)(C(=O)NO)S(C)(=O)=O [Example 68-D, (2R)-N-hydroxy-2-methyl-2-(methylsulfonyl)-4-{2-oxo-4-[4-(1,3-thiazol-2-yl)phenyl]pyridin-1(2H)-yl}butanamide] | 0.06 µg/mL | > 64 µg/mL | 0.5 µg/mL |
